Assay results reported in article PMC4850295, “Using a Genetically Encoded Sensor to Identify Inhibitors of Toxoplasma gondii Ca^2+ Signaling” (The Journal of Biological Chemistry, 2016).

What follows are compounds tested on T1, GCaMP5-expressing T. gondii. Conditions: 100 uM zaprinast stimulation; 10 min pretreatment; mean of two replicates; 0.23 h.
T1 construct: whole extracellular parasites expressing GCaMP5 Ca2+ sensor
Parameters: species or system GCaMP5-expressing Toxoplasma gondii, extracellular; GCaMP5 fluorescence (cytosolic Ca2+) after 100 uM zaprinast in compound-pretreated extracellular parasites, background-subtracted, relative to zaprinast alone
Description: GCaMP5-expressing parasites were suspended in Ringer's solution at 4 × 10^7 parasites/ml, and 50 μl of parasites were applied to each well of a 96-well plate (Costar, catalog no. 3631). […] Parasites were then treated with 100 μM zaprinast or 0.1% DMSO as a vehicle control and incubated at 37 °C with 5% CO2 for an additional 4 min before measuring fluorescence with excitation and emission wavelengths of 485 and 525 nm, respectively, on a SpectraMax M3 (Molecular Devices). Basal fluorescence, measured from untreated parasites, was subtracted from all values, and results were expressed as -fold change from parasites treated only with zaprinast. Z′ factors were determined from (i) parasites treated with zaprinast versus untreated parasites and (ii) parasites treated with a final concentration of 1 μM Cpd2 or a vehicle control followed by zaprinast, using the formula, Z′ = 1 − 3(σp + σn)/(|μp − μn|), where σp and σn indicate S.D. values of positive and negative controls, and μp and μn indicate the means of positive and negative controls, respectively. […] We predicted that the zaprinast response measured in GCaMP5-expressing parasites could form the basis for a phenotypic screen. Such a screen would benefit from the known importance of Ca^2+ signaling in parasite biology along with the reported success rate of cell-based phenotypic assays. We designed a screen wherein extracellular GCaMP5-expressing parasites were pretreated with compounds for 10 min before stimulation with zaprinast, and parasite fluorescence was measured 4 min later. We expected that compounds that interfered with the zaprinast response would reduce fluorescence. We calculated a Z′-factor for this screen to determine its dynamic range and suitability to high throughput screening. To do so, we compared zaprinast-treated parasites to untreated parasites or those pretreated with the PKG inhibitor Compound 2 (Cpd2) ([55]). […] We obtained the compound libraries published kinase inhibitor sets PKIS1 ([57]) and PKIS2 (unpublished), from GlaxoSmithKline and applied our phenotypic screen to the 823 ATP mimetics represented in these collections (Fig. 2B and supplemental Table S1). The compounds were screened at a single 10 μM dose with two biological replicates.

Row | SMILES | fold change in fluorescence relative to zaprinast alone
1 | CCn1c(-c2ccncc2)nc2cnccc21 [SB-735216] | 1.246
2 | COc1cccc(C2=C(N(C)c3ccccc3)C(=O)NC2=O)c1 [SB-334865] | 0.953
3 | CCSc1ccc(-c2nc3n(c2-c2ccncc2)CCC3)cc1 [SKF-106164-A2] | 1.019
4 | COc1cccc(C2=C(Nc3cccc(Cl)c3)C(=O)NC2=O)c1 [SB-341556] | 1.087
5 | FC(F)(F)c1ccccc1-c1cc(-c2cn[nH]c2-c2ccccn2)ccn1 [GW679396X] | 0.8259
6 | NS(=O)(=O)c1ccc(N/N=C2\C(=O)Nc3ccc(Cl)cc32)cc1 [GW280670X] | 0.9881
7 | CCNCC(Cc1ccccc1)NC(=O)c1cc(Br)c(-c2ccnc3[nH]ccc23)s1 (centres unmarked) [GSK1383280A] | 0.5995
8 | Cc1ccc(NC(=O)c2ccnc(N3CCCCC3)c2)cc1-c1ccc(C(=O)NCC2CC2)cc1 [GW775610X] | 1.448
9 | COc1ccc(COc2ccc(Cc3cnc(N)nc3N)cc2OC)cc1 [GW632580X] | 1.155
10 | CC(C)Nc1cc(-c2ccc3c(N)n[nH]c3c2)nc(N)n1 [GSK2221681A] | 1.173
11 | CCCN1CCC=C(c2ccc(Nc3nc(Nc4ccccc4C(N)=O)c4cc[nH]c4n3)c(C)c2)C1 [GSK994854A] | 1.737
12 | CCCC(=O)Nc1[nH]nc2ncccc12 [SB-601436] | 0.9225
13 | Clc1cccc(-c2nc(Nc3ccncc3)c3ccccc3n2)c1 [GW873004X] | 1.301
14 | COc1ccc2cc(-c3nc(-c4ccccc4C(C)C)[nH]c3-c3ccncc3)ccc2c1 [SB-660566] | 0.9646
15 | Cc1ccn2nc(-c3ccc(F)cc3)c(-c3ccncc3)c2c1 [GW457859A] | 0.07245
16 | Nc1ncnc2c1ncn2-c1cccc2ccccc12 [SKF-97184] | 0.9854
17 | Nc1nonc1-c1nc2cnccc2n1C1CCCCC1 [SB-734117] | 1.214
18 | NS(=O)(=O)c1ccc(N/N=C2\C(=O)Nc3ccc(C(=O)NCCc4c[nH]cn4)cc32)cc1 [GW300660X] | 1.243
19 | COc1ccc2cc(-c3c(-c4ccncc4)nc(-c4ccc([S+](C)[O-])cc4C)n3C)ccc2c1 (centres unmarked) [SB-630812] | 1.111
20 | NC(=O)c1ccc(-c2nc(-c3ccccn3)c(-c3ccc4c(c3)OCO4)[nH]2)cc1 [SB-431542-A] | 1.08
21 | Nc1nc(-c2ccc3c(N)n[nH]c3c2)cc(N2CCCC(NC(=O)c3ccccc3)C2)n1 (centres unmarked) [GSK2286775B] | 1.202
22 | CCN(CC)Cc1ccc(Nc2nccc(-c3cnn4ncccc34)n2)cc1 [GW780056X] | 0.8961
23 | COc1ccc2cc(-c3c(-c4ccncc4)nc(-c4ccc([S+](C)[O-])cc4)n3C)ccc2c1 (centres unmarked) [SB-437013] | 1.038
24 | Cc1ccnc2ccc(-c3sc(N)nc3-c3ccccn3)nc12 [GW777257X] | 1.011
25 | COc1cccc(C2=C(Nc3cccc(C(=O)O)c3)C(=O)NC2=O)c1 [SB-390770] | 0.98
26 | Nc1ncc(-c2cccc(S(N)(=O)=O)c2)c2scc(-c3ccc(F)c(Cl)c3)c12 [GW856804X] | 0.8933
27 | CC(C)NCC(Cc1ccccc1)NC(=O)c1cc(Br)c(-c2ccnc3[nH]ccc23)s1 (centres unmarked) [GSK1383281A] | 1.049
28 | COc1cccc(-n2ncc3c(N/N=C/c4ccc(F)cc4)ncnc32)c1 [GW817396X] | 1.185
29 | O=S(=O)(c1cccc(F)c1)c1ccc(Nc2ncnc3cc(Br)sc23)cc1Cl [GSK306886A] | 1.114
